Results from ChEMBL document CHEMBL1152528, “Synthesis and kinase inhibitory activity of novel substituted indigoids” (Bioorg Med Chem, 2009).

What was measured:
[1] = target: Cyclin-dependent kinase 5/CDK5 activator 1 (Homo sapiens, UniProt Q00535); assay: Inhibition of GST-fused CDK5/p25 expressed in Escherichia coli assessed as [gamma-33P]ATP incorporation after 10 mins by scintillation counting
[2] = target: Dual specificity tyrosine-phosphorylation-regulated kinase 1A (Rattus norvegicus, UniProt Q63470); assay: Inhibition of GST-fused rat recombinant DYRK1A expressed in Escherichia coli assessed as [gamma-33P]ATP incorporation after 10 mins by scintillation counting
[3] = Inhibition of Marthasterias glacialis CDK1/cyclin-B assessed as [gamma-33P]ATP incorporation after 10 mins by scintillation counting
[4] = target: Glycogen synthase kinase-3 (Sus scrofa, UniProt B2LUN4+I6LNT8); assay: Inhibition of porcine brain GSK3alpha/beta assessed as [gamma-33P]ATP incorporation after 30 mins by scintillation counting
[5] = Inhibition of porcine brain CK1 assessed as [gamma-33P]ATP incorporation after 10 mins by scintillation counting; set-up: species or system Sus scrofa
[6] = Antiproliferative activity against human fibroblast after 72 hrs by imaging analysis; assay type: cell-based
PC-3 = assay: Antiproliferative activity against human PC3 cells after 72 hrs by imaging analysis; assay type: functional, cell-based; conditions: PC-3, 72 h
Caco-2 = assay: Antiproliferative activity against human Caco-2 cells after 72 hrs by imaging analysis; assay type: functional, cell-based; conditions: Caco-2, 72 h
Huh-7 = assay: Antiproliferative activity against human HuH7 cells after 72 hrs by imaging analysis; assay type: functional, cell-based; conditions: Huh-7, 72 h
[7] = Antiproliferative activity against human NCI/ADR cells after 72 hrs by imaging analysis; assay type: functional, cell-based; conditions: NCI/ADR-RES
HCT-116 = assay: Antiproliferative activity against human HCT116 cells after 72 hrs by imaging analysis; assay type: functional, cell-based; conditions: HCT-116, 72 h

Cyclin-dependent kinase 5/CDK5 activator 1, sequence (Q00535 whole entry, the tested form may be a part): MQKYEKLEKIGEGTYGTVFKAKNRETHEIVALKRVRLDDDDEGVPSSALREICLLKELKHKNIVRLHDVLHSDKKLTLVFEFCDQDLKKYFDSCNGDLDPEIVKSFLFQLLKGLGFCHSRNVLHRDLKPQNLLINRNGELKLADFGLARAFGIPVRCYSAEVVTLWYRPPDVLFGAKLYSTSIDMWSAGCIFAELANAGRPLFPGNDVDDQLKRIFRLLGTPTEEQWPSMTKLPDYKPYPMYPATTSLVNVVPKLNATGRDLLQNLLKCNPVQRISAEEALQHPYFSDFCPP
Cyclin-dependent kinase 5/CDK5 activator 1, sequence (Q15078 whole entry, further chain, the tested form may be a part): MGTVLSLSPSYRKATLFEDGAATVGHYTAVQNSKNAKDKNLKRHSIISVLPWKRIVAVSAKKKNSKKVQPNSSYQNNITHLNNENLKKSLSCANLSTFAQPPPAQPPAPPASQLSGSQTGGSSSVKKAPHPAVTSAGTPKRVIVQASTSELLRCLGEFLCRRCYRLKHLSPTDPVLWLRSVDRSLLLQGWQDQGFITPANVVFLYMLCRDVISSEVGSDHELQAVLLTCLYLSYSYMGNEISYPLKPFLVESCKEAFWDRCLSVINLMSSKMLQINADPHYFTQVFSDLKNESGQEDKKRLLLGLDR

Row | IC50 [1] [µM] | IC50 [2] [µM] | IC50 [3] [µM] | IC50 [4] [µM] | IC50 [5] [µM] | IC50 (PC-3) [µM] | IC50 (Caco-2) [µM] | IC50 (Huh-7) [µM] | IC50 (HCT-116) [µM] | Compound | IC50 [6] [µM] | IC50 [7] [µM]
1 | 0.16 | 15 | 0.088 | 0.35 | 0.4 | – | – | – | – | CC(=O)Nc1ccc2c(c1)/C(=C1/Nc3ccccc3/C1=N\O)C(=O)N2 | – | –
2 | 25 | > 10 | 40 | 19 | > 10 | – | – | – | – | O=C1C(c2c(O)[nH]c3ccc([N+](=O)[O-])cc23)=Nc2ccccc21 | – | –
3 | 0.12 | – | 0.18 | 0.04 | 0.6 | – | – | – | – | O=C1Nc2cc([N+](=O)[O-])ccc2/C1=C1/Nc2ccccc2/C1=N\O | – | –
4 | > 10 | > 10 | > 10 | > 10 | > 10 | – | – | – | – | O=C1Nc2c(Br)cc([N+](=O)[O-])cc2/C1=C1/Nc2ccc(Br)cc2/C1=N\O | – | –
5 | 3.3 | > 10 | 1.4 | 40 | > 10 | – | – | – | – | CC(=O)Nc1ccc2c(c1)/C(=C1/Nc3ccc(Br)cc3/C1=N\O)C(=O)N2 | – | –
6 | > 10 | > 10 | > 10 | > 10 | > 10 | – | – | – | – | O=C1Nc2c(Br)cc([N+](=O)[O-])cc2/C1=C1/Nc2ccccc2C1=O | – | –
7 | > 10 | > 10 | > 10 | > 10 | > 10 | – | – | – | – | O=C1Nc2ccc([N+](=O)[O-])cc2/C1=C1/Nc2ccc(Br)cc2C1=O | – | –
8 | 0.006 | 1.3 | 0.019 | 0.0021 | > 10 | – | – | – | – | O=Nc1c(-c2c(O)[nH]c3ccc([N+](=O)[O-])cc23)[nH]c2ccccc12 | – | –
9 | – | – | – | – | – | > 25 | > 25 | > 25 | > 25 | O=C1Nc2ccccc2/C1=C1\C(=O)Nc2ccc([N+](=O)[O-])cc21 | > 25 | 25
10 | 0.018 | 2.5 | 0.05 | 0.0075 | 8 | 2 | 5 | 2 | 2 | CC(=O)Nc1ccc2c(c1)/C(=C1/Nc3ccccc3C1=O)C(=O)N2 | > 25 | 10
11 | 0.55 | > 10 | 0.6 | 0.44 | 2.7 | – | – | – | – | Nc1ccc2c(c1)/C(=C1/Nc3ccc(Br)cc3C1=O)C(=O)N2 | – | –

The remaining lines, values behind:

Row | Compound | IC50 [1] [µM] | IC50 [2] [µM] | IC50 [3] [µM] | IC50 [4] [µM] | IC50 [5] [µM] | IC50 (PC-3) [µM] | IC50 (Caco-2) [µM] | IC50 (Huh-7) [µM] | IC50 (HCT-116) [µM] | IC50 [6] [µM] | IC50 [7] [µM]
12 | CC(=O)Nc1ccc2c(c1)/C(=C1/Nc3ccc(Br)cc3C1=O)C(=O)N2 | 0.11 | 7.3 | 0.055 | 0.073 | > 10 | – | – | – | – | – | –
13 | Nc1ccc2c(c1)/C(=C1/Nc3ccc(Br)cc3/C1=N\O)C(=O)N2 | 1 | > 10 | 0.41 | 6.6 | > 10 | – | – | – | – | – | –
14 | O=C1Nc2cc([N+](=O)[O-])ccc2/C1=C1/Nc2ccc(Br)cc2/C1=N\O | 0.3 | – | 7 | 0.7 | 18 | – | – | – | – | – | –
15 | O=C1Nc2c(Br)cc([N+](=O)[O-])cc2/C1=C1/Nc2ccc(Br)cc2C1=O | > 10 | > 10 | > 10 | > 10 | > 10 | – | – | – | – | – | –
16 | Nc1ccc2c(c1)/C(=C1/Nc3ccccc3C1=O)C(=O)N2 | 0.59 | 2.5 | 1.5 | 0.08 | 0.65 | 5 | 2 | 6 | 15 | > 25 | 20
17 | Nc1ccc2c(c1)NC(=O)/C2=C1\Nc2ccccc2C1=O | 4 | – | 30 | 0.36 | 16 | 25 | 5 | > 25 | > 25 | > 25 | 25
18 | O=C1Nc2c(Br)cc([N+](=O)[O-])cc2/C1=C1/Nc2ccccc2/C1=N\O | > 10 | > 10 | > 10 | > 10 | > 10 | – | – | – | – | – | –
19 | CC(=O)O[C@H]1C(=O)[C@@]2(C)[C@H]([C@H](OC(=O)c3ccccc3)[C@]3(O)C[C@H](OC(=O)[C@H](O)[C@@H](NC(=O)c4ccccc4)c4ccccc4)C(C)=C1C3(C)C)[C@]1(OC(C)=O)CO[C@@H]1C[C@@H]2O [PACLITAXEL] | – | – | – | – | – | < 0.0008 | 0.02 | 0.008 | < 0.0008 | 0.03 | 0.004
20 | O=C1Nc2cc([N+](=O)[O-])ccc2/C1=C1/Nc2ccccc2C1=O | > 10 | – | > 10 | 60 | > 10 | 15 | 3 | > 25 | 5 | > 25 | 2
21 | CC[C@H](CO)Nc1nc(NCc2ccccc2)c2ncn(C(C)C)c2n1 [SELICICLIB] | – | – | – | – | – | 8 | – | 5 | 5 | > 25 | 6
22 | O=C1Nc2cc([N+](=O)[O-])ccc2/C1=C1/Nc2ccc(Br)cc2C1=O | > 10 | – | > 10 | > 10 | > 10 | – | – | – | – | – | –
23 | Nc1ccc2c(c1)/C(=C1/Nc3ccccc3/C1=N\O)C(=O)N2 | 0.15 | 4.2 | 0.1 | 0.36 | 0.13 | – | – | – | – | – | –
24 | O=C1Nc2ccc([N+](=O)[O-])cc2/C1=C1/Nc2ccc(Br)cc2/C1=N/O | 0.05 | > 10 | 0.16 | 0.055 | > 10 | – | – | – | – | – | –
25 | Nc1ccc2c(c1)/C(=C1\C(=O)Nc3ccccc31)C(=O)N2 [(3'Z)-5-AMINOISOINDIGO] | – | – | – | – | – | 25 | > 25 | > 25 | > 25 | > 25 | 25
26 | Nc1ccc2c(c1)NC(=O)/C2=C1\Nc2ccccc2\C1=N/O | 0.2 | – | 1 | 0.18 | 0.5 | – | – | – | – | – | –
